Results reported in patent US5212160A, “3-L-(5-thioxo-L-prolyl)thiazolidine-4-carboxylic acid and derivatives therefrom, processes for the preparation thereof and pharmaceutical compositions containing them” (Poli Industria Chimica S.p.A., priority 1990, dated 1993).
Where a SMILES comes first, the peptide text is derived from it. [ ]: non-standard residue; d: D form. pGlu = O=C1CC[C@@H](C(=O)O)N1; Thz = O=C(O)[C@@H]1CSCN1

Tests used:
[1] = test system: prednisolone-immunodepressed murine peritoneal macrophages; assay: Superoxide anion production by prednisolone-immunodepressed murine peritoneal macrophages (cytochrome C reduction, PMA stimulated); type: in vivo, mice; details: for Reduced cytochrome C nmoles/1 × 10^6 macrophages (mean ± s.e.): 200 mg/kg/die i.p. + prednisolone 0.5 mg/kg/die s.c., 11 days, macrophages stimulated with phorbol myristate acetate; for Activity on superoxide anion production compared with PGT: same weight dosage as PGT
Method: Since the production of the superoxide anion (O2.) plays an important role in macrophage antimicrobial activity (N. P. Cumming, M. J. Pabst, J. Exp. Med., 152, 1659, 1980), the test for stimulation of the superoxide anion production in macrophages by medicaments is very important in the evaluation of the immuno-stimulating activity. Therefore, O2. production in isolated peritoneal macrophages from prednisolone-immunodepressed animals treated with the compounds of the invention was evaluated. Mice were treated subcutaneously for 11 days with 0.5 mg/kg/day with prednisolone and with the tested compounds at a dose of 100 mg/kg intraperitoneally twice a day, whereas the day of killing they received the only compounds of the invention. Then macrophages were isolated by means of peritoneal washing and cultured in RPMI-1640 added with 10% bovine foetal serum at a concentration of 1×10^6 cells/ml and at a temperature of +37° C. 1 ml aliquots of the cell suspension were incubated for 15 min. at 37° C. with cytochrome C from horse hearth and stimulated with phorbol myristate acetate (H. Nielsen, Eur. J. Clin. Pharmacol., 30, 99, 1986). After that, a spectrophotometric determination of reduced ferricytochrome C at λ=550 nm was carried out, using an extinction coefficient E (550)=29.5 mM.

[2] = Antitoxic activity: protection of rats against formaldehyde toxicity; type: in vivo, COBS CD(SD) Rats; details: 0.5 mM/kg oral (2 administrations); formaldehyde 900 mg/kg per os; mortality up to 72 hours
Method: (§1) The antitoxic activity was tested by determining the capability of the compounds of the invention to protect rats against formaldehyde and acetaldehyde toxicities (Sprince et al., Agents and Actions, 9, 407, 1979). COBS CD(SD) Rats (C. River) weighing 180-200 g fasted since the night before were orally administered with the test compounds half an hour before and 5 hours after the oral administration of the toxic agent. Formaldehyde was administered at the dose of 900 mg/kg per os and acetaldehyde at the dose of 2150 mg/kg per os; mortality was controlled up to 72 hours later. […] The activity of the compounds of the invention is similar to that of ascorbic acid and L-cysteine. Since acetaldehyde and formaldehyde are an important portion of the toxic agents contained in cigarette smoke, these novel compounds are very important in the treatment of all the lung pathologies connected to tobacco abuse or to atmosphere pollution. The antiradical activity was tested against doxorubicin mortality in the mouse (R. D. Olson et al., Life Sci., 29, 1393, 1981). Groups of 10 male CD-1 mice (C. River) weighing 18-20 g were treated orally with the tested compounds; one hour later doxorubicin was administered at the dose of 22 mg/kg i.p. (10 ml/kg). […]

[3] = Antitoxic activity: protection of rats against acetaldehyde toxicity; type: in vivo, COBS CD(SD) Rats; details: 0.5 mM/kg oral (2 administrations); acetaldehyde 2150 mg/kg per os; mortality up to 72 hours
Method: as §1

[4] = Antiradical activity: protection against doxorubicin mortality in the mouse; type: in vivo, male CD-1 mice; details: 0.5 mM/kg per os 4 times in two days; doxorubicin 22 mg/kg i.p.; mortality checked for 14 days
Method: as §1

CCOC(=O)[C@@H]1CSCN1C(=O)[C@@H]1CCC(=S)N1 [Ia, Ethyl 3-L-(L-5-thioxoprolyl)thiazolidine-4-carboxylate]
Reduced cytochrome C nmoles/1 × 10^6 macrophages (mean ± s.e.) [1]: 9.15 ± 0.68 nmoles/1 × 10^6 macrophages
Activity on superoxide anion production compared with PGT [1]: higher activities than that of PGT
Protection against formaldehyde mortality [2]: 60%
Protection against acetaldehyde mortality [3]: 70%
Protection against doxorubicin mortality [4]: 40%

O=C(O)[C@@H]1CSCN1C(=O)[C@@H]1CCC(=S)N1 [Ib, 3-L-(5-thioxoprolyl)thiazolidine-4-carboxylic acid]
Reduced cytochrome C nmoles/1 × 10^6 macrophages (mean ± s.e.) [1]: 9.17 ± 0.68 nmoles/1 × 10^6 macrophages
Activity on superoxide anion production compared with PGT [1]: higher activities than that of PGT
Protection against formaldehyde mortality [2]: 70%
Protection against acetaldehyde mortality [3]: 60%
Protection against doxorubicin mortality [4]: 50%

O=C1CC[C@@H](C(=O)N2CSC[C@H]2C(=O)O)N1 [PGT, 3-L-pyroglutamyl-L-thiazolidine-4-carboxylic acid, reference compound] ([pGlu]-[Thz]-OH)
Reduced cytochrome C nmoles/1 × 10^6 macrophages (mean ± s.e.) [1]: 8.33 ± 0.77 nmoles/1 × 10^6 macrophages
